As a reminder, the IC50 is the concentration that gives 50% inhibition.

Drawing on patent US20240368135A1 (VERTEX PHARMACEUTICALS INCORPORATED, priority 2021, published 2024), this text covers IC50 for 19 compounds.

Where only a bound is given, the exact number is not on record here.

human NaV 1.8, sequence (Q9Y5Y9 126-399 limits assumed): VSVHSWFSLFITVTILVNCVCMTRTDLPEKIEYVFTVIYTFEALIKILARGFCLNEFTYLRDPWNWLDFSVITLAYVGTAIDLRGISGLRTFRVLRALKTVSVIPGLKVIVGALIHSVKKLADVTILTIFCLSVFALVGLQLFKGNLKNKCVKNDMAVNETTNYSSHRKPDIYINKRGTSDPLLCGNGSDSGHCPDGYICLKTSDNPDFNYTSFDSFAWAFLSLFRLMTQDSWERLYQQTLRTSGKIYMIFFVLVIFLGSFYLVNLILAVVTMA
human NaV 1.8, sequence (Q9Y5Y9 660-890 limits assumed): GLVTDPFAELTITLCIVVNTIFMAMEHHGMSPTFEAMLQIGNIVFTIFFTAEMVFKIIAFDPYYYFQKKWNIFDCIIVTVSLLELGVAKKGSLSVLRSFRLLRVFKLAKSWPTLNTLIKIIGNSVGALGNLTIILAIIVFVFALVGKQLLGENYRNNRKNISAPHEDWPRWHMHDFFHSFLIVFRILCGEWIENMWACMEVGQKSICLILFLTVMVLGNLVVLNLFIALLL
human NaV 1.8, sequence (Q9Y5Y9 1148-1722 limits assumed): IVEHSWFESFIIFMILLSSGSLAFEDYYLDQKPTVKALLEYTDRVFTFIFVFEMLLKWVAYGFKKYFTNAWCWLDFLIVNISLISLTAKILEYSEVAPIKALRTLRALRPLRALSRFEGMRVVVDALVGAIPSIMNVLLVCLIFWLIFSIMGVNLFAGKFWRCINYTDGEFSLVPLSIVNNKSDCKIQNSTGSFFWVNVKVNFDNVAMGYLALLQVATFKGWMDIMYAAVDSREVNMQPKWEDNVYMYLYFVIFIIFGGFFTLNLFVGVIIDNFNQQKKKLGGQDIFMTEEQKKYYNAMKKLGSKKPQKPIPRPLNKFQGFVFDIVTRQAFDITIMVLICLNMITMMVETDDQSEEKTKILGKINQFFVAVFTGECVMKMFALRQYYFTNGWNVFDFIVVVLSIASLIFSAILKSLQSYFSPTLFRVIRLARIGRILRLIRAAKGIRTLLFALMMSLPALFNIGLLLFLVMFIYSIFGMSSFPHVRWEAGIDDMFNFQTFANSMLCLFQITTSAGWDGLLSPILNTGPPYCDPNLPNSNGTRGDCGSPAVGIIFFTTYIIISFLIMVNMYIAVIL

The first assay deals with human NaV 1.8 (Homo sapiens, UniProt Q9Y5Y9). Kind of assay: E-VIPR assay detecting and measuring NaV inhibition properties. Type of assay: cell-based. Conditions: HEK cells expressing truncated human NaV 1.8; in the presence of human serum (compound numbers followed by *); read-out: IC50 in the E-VIPR Assay, performed in the presence of human serum. The procedure, abridged:
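HEK cells expressing truncated, fully active human NaV1.8, with KIR2.1 BacMam co-transduction, were loaded with CC2-DMPE/DiSBAC6(3) voltage-sensing dyes for 20 min at room temperature. Compounds were tested in 11-point 3-fold dilutions (300 nM top final), optionally with 25% human serum, under electrical stimulation with FRET read-out.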
Turning to `COc1cc(F)ccc1C1CC(C)(C(F)(F)F)OC1C(=O)Nc1ccnc(S(C)(=N)=O)c1` (stereo not shown) [Compound 715, 3-(4-fluoro-2-methoxy-phenyl)-5-methyl-N-[2-(methylsulfonimidoyl)-4-pyridyl]-5-(trifluoromethyl)tetrahydrofuran-2-carboxamide], the IC50 was 100 to 1000 nM.
`COc1c(C2C(C(=O)Nc3ccnc(C(O)C(C)O)c3)OC(C)(C(F)(F)F)C2C)ccc(F)c1C` (single isomer, unassigned) [Compound 142]: the IC50 is no less than 1000 nM.

Still in this assay, the particulars now being: HEK cells expressing truncated human NaV 1.8; no human serum; read-out: IC50 in the E-VIPR Assay.
As for `COc1c([C@H]2[C@H](C(=O)Nc3ccnc(N4C[C@@H](C)N(C)CC4=O)c3)O[C@@](C)(C(F)(F)F)[C@H]2C)ccc(F)c1F` [Compound 470, (2R,3S,4S,5R)-3-(3,4-difluoro-2-methoxyphenyl)-N-(2-((R)-4,5-dimethyl-2-oxopiperazin-1-yl)pyridin-4-yl)-4,5-dimethyl-5-(trifluoromethyl)tetrahydrofuran-2-carboxamide], the IC50 was less than 10 nM.
The same measure, in the same setting: next, `COc1c([C@H]2[C@H](C(=O)Nc3ccnc(N4CCN(C)CC4)c3)O[C@@](C)(C(F)(F)F)[C@H]2C)ccc(F)c1F` [Compound 312, (2R,3S,4S,5R)-3-(3,4-difluoro-2-methoxyphenyl)-4,5-dimethyl-N-(2-(4-methylpiperazin-1-yl)pyridin-4-yl)-5-(trifluoromethyl)-tetrahydrofuran-2-carboxamide]: 10 to 100 nM; `COc1c([C@@H]2[C@@H](C(=O)Nc3ccnc(S(=O)(=O)N(C)C)c3)O[C@](C)(C(F)(F)F)[C@@H]2C)ccc(F)c1F` (stereo in doubt) [Compound 448, rel-(2S,3R,4R,5S)-3-(3,4-difluoro-2-methoxyphenyl)-N-(2-(N,N-dimethylsulfamoyl)pyridin-4-yl)-4,5-dimethyl-5-(trifluoromethyl)tetrahydrofuran-2-carboxamide]: no less than 1000 nM.
In the case of `C[C@H]1[C@@H](c2ccc(F)c(F)c2OC(F)F)[C@H](C(=O)Nc2ccnc(CO)c2)O[C@@]1(C)C(F)(F)F` (single isomer, unassigned) [Compound 92], the IC50 was less than 10 nM.
On the same count and under the same terms, next, `COc1c([C@H]2[C@H](C(=O)Nc3ccnc(CN4CCC(F)(F)C4)c3)O[C@@](C)(C(F)(F)F)[C@H]2C)ccc(F)c1F` [Compound 182, (2R,3S,4S,5R)-3-(3,4-difluoro-2-methoxyphenyl)-N-(2-((3,3-difluoropyrrolidin-1-yl)methyl)pyridin-4-yl)-4,5-dimethyl-5-(trifluoromethyl)tetrahydrofuran-2-carboxamide]: 10 to 100 nM; `C[C@H]1[C@@H](c2ccc(F)c(F)c2OCCN2CCOCC2)[C@H](C(=O)Nc2cc(C(N)=O)nn2C)O[C@@]1(C)C(F)(F)F` [Compound 592, 5-((2R,3S,4S,5R)-3-(3,4-difluoro-2-(2-morpholinoethoxy)phenyl)-4,5-dimethyl-5-(trifluoromethyl)tetrahydrofuran-2-carboxamido)-1-methyl-1H-pyrazole-3-carboxamide]: 10 to 100 nM; `CNc1cc(NC(=O)[C@@H]2O[C@@](C)(C(F)(F)F)[C@@H](C)[C@H]2c2ccc(F)c(F)c2OC)ccn1` [Compound 387, (2R,3S,4S,5R)-3-(3,4-difluoro-2-methoxyphenyl)-4,5-dimethyl-N-(2-(methylamino)pyridin-4-yl)-5-(trifluoromethyl)tetrahydrofuran-2-carboxamide]: 10 to 100 nM.
On the same count and under the same terms, next, `COc1c([C@H]2[C@H](C(=O)Nc3ccc(CC4CCNCC4)nc3)O[C@@](C)(C(F)(F)F)[C@H]2C)ccc(F)c1F` [Compound 215, (2R,3S,4S,5R)-3-(3,4-difluoro-2-methoxyphenyl)-4,5-dimethyl-N-(6-(piperidin-4-ylmethyl)pyridin-3-yl)-5-(trifluoromethyl)tetrahydrofuran-2-carboxamide]: 10 to 100 nM; `CNC(=O)CN(C)c1cc(NC(=O)[C@@H]2O[C@@](C)(C(F)(F)F)[C@@H](C)[C@H]2c2ccc(F)c(F)c2OC)ccn1` [Compound 487, (2R,3S,4S,5R)-3-(3,4-difluoro-2-methoxyphenyl)-4,5-dimethyl-N-(2-(methyl(2-(methylamino)-2-oxoethyl)amino)pyridin-4-yl)-5-(trifluoromethyl)tetrahydrofuran-2-carboxamide]: less than 10 nM; `COc1c([C@H]2[C@H](C(=O)Nc3cc(S(C)(=O)=O)nn3C)O[C@@](C)(C(F)(F)F)[C@H]2C)ccc(F)c1F` [Compound 211, (2R,3S,4S,5R)-3-(3,4-difluoro-2-methoxyphenyl)-4,5-dimethyl-N-(1-methyl-3-(methylsulfonyl)-1H-pyrazol-5-yl)-5-(trifluoromethyl)tetrahydrofuran-2-carboxamide]: less than 10 nM.
On the same count and under the same terms, next, `COc1c([C@H]2[C@H](C(=O)Nc3ccc4nc(C(=O)N5CCOCC5)cn4c3)O[C@@](C)(C(F)(F)F)[C@H]2C)ccc(F)c1F` [Compound 259, (2R,3S,4S,5R)-3-(3,4-difluoro-2-methoxyphenyl)-4,5-dimethyl-N-(2-(morpholine-4-carbonyl)imidazo[1,2-a]pyridin-6-yl)-5-(trifluoromethyl)tetrahydrofuran-2-carboxamide]: 10 to 100 nM; `C[C@@H]1[C@H](c2ccc(F)c(F)c2OC(F)F)[C@@H](C(=O)Nc2ccc(CC(C)(C)O)nc2)O[C@]1(C)C(F)(F)F` (single isomer, unassigned) [Compound 461]: no less than 1000 nM; `COCC(N)c1cc(NC(=O)[C@@H]2O[C@@](C)(C(F)(F)F)[C@@H](C)[C@H]2c2ccc(F)c(F)c2OC)c(F)cn1` (single isomer, unassigned) [Compound 423, rel-(2R*,3S*,4S*,5R*)-N-(2-(1-amino-2-methoxyethyl)-5-fluoropyridin-4-yl)-3-(3,4-difluoro-2-methoxyphenyl)-4,5-dimethyl-5-(trifluoromethyl)-tetrahydrofuran-2-carboxamide]: less than 10 nM.
Consider `CCS(=O)(=O)c1cc(NC(=O)C2OC(C)(C(F)(F)F)C(C)C2c2ccc(F)c(F)c2OC)ccn1` (single isomer, unassigned) [Compound 52, 3-(3,4-difluoro-2-methoxy-phenyl)-N-(2-ethylsulfonyl-4-pyridyl)-4,5-dimethyl-5-(trifluoromethyl)tetrahydrofuran-2-carboxamide], for which the IC50 was no less than 1000 nM.
As to `COc1c([C@H]2[C@H](C(=O)NC3CS(=O)(=O)C3)O[C@@](C)(C(F)(F)F)[C@H]2C)ccc(F)c1F` [Compound 309, (2R,3S,4S,5R)-3-(3,4-difluoro-2-methoxyphenyl)-N-(1,1-dioxidothietan-3-yl)-4,5-dimethyl-5-(trifluoromethyl)tetrahydrofuran-2-carboxamide], the IC50 is no less than 1000 nM.
Same read-out and setting: next, `COc1c([C@H]2[C@H](C(=O)Nc3cc(C)nn3CCC#N)O[C@@](C)(C(F)(F)F)[C@H]2C)ccc(F)c1F` [Compound 292, (2R,3S,4S,5R)-N-(1-(2-cyanoethyl)-3-methyl-1H-pyrazol-5-yl)-3-(3,4-difluoro-2-methoxyphenyl)-4,5-dimethyl-5-(trifluoromethyl)tetrahydrofuran-2-carboxamide]: no less than 1000 nM.
Still for that read-out and setting: next, `COc1c([C@H]2[C@H](C(=O)Nc3cnc(C)n3C)O[C@@](C)(C(F)(F)F)[C@H]2C)ccc(F)c1F` [Compound 447, (2R,3S,4S,5R)-3-(3,4-difluoro-2-methoxy-phenyl)-N-(2,3-dimethylimidazol-4-yl)-4,5-dimethyl-5-(trifluoromethyl)tetrahydrofuran-2-carboxamide]: 10 to 100 nM.
